# Results as given in patent US8956824B2, “Methods for identifying allosteric modulators of ship polypeptides” (British Columbia Cancer Agency Branch, priority 2006, dated 2015).
# “Also recorded” adds a separate entry of the source.
# Key:
# LNCaP cells = assay: PKB phosphorylation in LNCaP cells; assay type: cell-based; settings: 30 min treatment; cells do not express SHIP1
# Experimental: The non-hemopoietic, prostate cancer LnCAP cell line was treated with AQX-016A or LY294002 for 30 min and cell lysates analyzed for phospho-PKB-Thr 308 or phospho-PKB 473 as described in the Examples. AQX-016A (Molecular Weight 328.24) concentration is indicated in μM.
# SHIP1 C2 domain = target: T1, SHIP1 C2 domain (Mus musculus, UniProt Q9ES52); assay: Protein lipid overlay assay, C2 domain; assay type: binding; settings: 200 μM AQX-MN100, 30 min pre-incubation
# T1 construct: Recombinant SHIP1 C2 domain (amino acid residues 725 to 863); made in house; host or cells: E. coli, pET28C
# T1 sequence (Q9ES52 725-863): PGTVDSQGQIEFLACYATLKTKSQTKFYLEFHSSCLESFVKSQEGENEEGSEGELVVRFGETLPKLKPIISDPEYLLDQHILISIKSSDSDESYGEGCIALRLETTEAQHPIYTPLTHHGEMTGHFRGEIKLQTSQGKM
# Experimental: Protein Lipid Overlay Assays Protein Lipid Overlay assays were performed essentially as described (23) with minor modifications. Lyophilized phosphatidylinositol-3,4-bisphosphate diC16 (PIP2, Echelon Biosciences, Salt Lake City, Utah) was reconstituted in a 2:1.8 solution of methanol and water. PVDF membranes (Millipore, Missisauga, Ont) were initially wetted in methanol for 1 minute, and washed 3×5 min with water, and gently agitated in TBST buffer (20 mM Tris pH 7.5, 0.15 M NaCl (TBS) with 0.05% Tween 20) at 23° C. overnight. The treated membranes were air-dried and dilutions of reconstituted lipids were spotted in 1 μl aliquots to give the indicated amount of PIP2 per membrane spot. The membranes were dried completely and blocked with blocking buffer (3% BSA in TBS with 0.05% NaN3) for 1 h at 23° C. on a gentle shaker. Purified, recombinant C2 domain was diluted into blocking buffer (5 μM final) and treated with 200 μM AQX-MN100 or EtOH control for 30 min at 23° C. prior to overnight incubation with the PIP2 spotted membranes. The membranes were washed 10 times over 50 min in TBST buffer at 23° C. and were incubated with anti-His6 mouse IgG (Qiagen, Missisauga, Ont) for 1 hour at 23° C. with gentle rocking. […] The membranes were washed 3 times in TBST over 15 min at 23° C. and the bound proteins were detected and quantified on a Li-Cor Odyssey scanner (Lincoln, Nebr.). […]
# [1] = target: T2, C2 domain deleted (ΔC2) SHIP1 enzyme (Mus musculus, UniProt Q9ES52, DEL725-860/G861A/K862A/M863A); assay: Scintillation proximity assay, ΔC2 SHIP1; assay type: binding; settings: 5 μCi
# T2 construct: Full length, wild-type SHIP1 enzyme (wt) or SHIP1 enzyme in which the PH or C2 domains were deleted; made in house; 293T cells are stated only for the wild-type enzyme
# T2 sequence (Q9ES52 with tags, fused parts or gaps DEL725-860/G861A/K862A/M863A limits assumed): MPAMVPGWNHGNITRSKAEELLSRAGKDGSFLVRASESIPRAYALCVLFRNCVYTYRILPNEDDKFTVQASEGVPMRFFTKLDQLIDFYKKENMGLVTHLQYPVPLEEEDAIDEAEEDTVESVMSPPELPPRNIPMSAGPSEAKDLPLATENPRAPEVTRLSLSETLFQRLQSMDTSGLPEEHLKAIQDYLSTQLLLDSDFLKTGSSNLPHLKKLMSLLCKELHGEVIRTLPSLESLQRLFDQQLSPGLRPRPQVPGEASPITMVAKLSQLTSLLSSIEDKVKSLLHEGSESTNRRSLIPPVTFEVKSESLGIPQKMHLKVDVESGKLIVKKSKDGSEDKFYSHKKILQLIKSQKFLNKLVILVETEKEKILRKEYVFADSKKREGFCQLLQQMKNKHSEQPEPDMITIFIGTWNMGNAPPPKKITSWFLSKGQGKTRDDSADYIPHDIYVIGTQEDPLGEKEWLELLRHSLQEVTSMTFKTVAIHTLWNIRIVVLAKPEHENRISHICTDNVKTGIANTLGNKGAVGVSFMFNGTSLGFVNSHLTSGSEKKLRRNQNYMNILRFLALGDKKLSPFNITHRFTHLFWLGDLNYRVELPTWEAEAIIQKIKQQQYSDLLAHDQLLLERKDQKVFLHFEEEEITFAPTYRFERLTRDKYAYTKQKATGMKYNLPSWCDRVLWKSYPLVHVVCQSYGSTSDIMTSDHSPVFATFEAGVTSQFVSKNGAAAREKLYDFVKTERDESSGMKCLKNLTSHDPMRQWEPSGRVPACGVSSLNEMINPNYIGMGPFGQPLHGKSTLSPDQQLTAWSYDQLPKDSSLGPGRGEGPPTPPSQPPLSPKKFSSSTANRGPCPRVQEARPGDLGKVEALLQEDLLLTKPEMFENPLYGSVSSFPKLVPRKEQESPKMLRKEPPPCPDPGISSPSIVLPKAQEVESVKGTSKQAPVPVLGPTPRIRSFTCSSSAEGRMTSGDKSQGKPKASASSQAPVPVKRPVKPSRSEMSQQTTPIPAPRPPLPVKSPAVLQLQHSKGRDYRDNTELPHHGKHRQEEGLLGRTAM
# Experimental: Scintillation Proximity Assays AQX-MN100 was radiolabeled with tritium by GE Healthcare (Piscataway, N.J.) to a specific activity of 42 Ci/mmole. Copper chelate (His-Tag) YSi YSi SPA Scintillation Beads (GE Healthcare ,Piscataway, NJ) were diluted in 0.25% BSA/TBS to 1.5 mg/mL and recombinant, His6-tagged protein added at the indicated concentrations: wild-type (1 pM), ΔC2 SHIP enzyme (1 pM) or C2 domain (10 nM). Protein was allowed to bind 1 h at 23° C., and 250 μg of beads were aliquoted per well of a 96-well plate. 5 μCi of [3H]-AQX-MN100 was added per well, the plate gently agitated for 30 min and the amount of bead associated radioactivity quantified by counting in a Wallac BETAPLATE™ plate scintillation counter. Results are representative of 3 independent experiments.
Compound,PKB phosphorylation in LNCaP cells (LNCaP cells),"inhibition of C2 domain binding to phosphatidylinositol lipid (PI-3,4-P2 / PIP3) (SHIP1 C2 domain)",binding of [3H]-AQX-MN100 to SHIP1 lacking its C2 domain [1]
Cc1cc(O)c(O)c2c1[C@]1(C)CC[C@H]3C(C)(C)CCC[C@]3(C)[C@H]1C2 [AQX-016A],had no effect; also recorded: but not AQX-016A inhibits PKB phosphorylation,,
Cc1cc(O)cc2c1[C@]1(C)CC[C@H]3C(C)(C)CCC[C@]3(C)[C@H]1C2 [AQX-MN100],,"could compete with PI-3,4-P2 for binding; also recorded: inhibits the binding of the C2; also recorded: is inhibited",C2 domain is required for SHIP1 to bind; also recorded: requires the C2 domain to bind
